Some test systems named below: MDA-N; Hs-578T; MDA-MB-231; KM-20L2; HOP-18; DMS-273; DMS-114; DLD-1; RXF 631.
What all share (experiment): DTP human tumour cell line panel, 48 h

Structures are written as SMILES. Counter-ions that a name gives are not always drawn.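 48-hour exposure; five concentrations; linearly interpolated endpoints. Abbreviation: GI50, concentration required for 50% inhibition of growth.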 Activity calls are given as the source filed them. Rule as the data show it: active = GI50 up to about 1.1 µM and inactive = higher.

With `O=[N+]([O-])c1ccc(S(=O)(=O)N=Ic2ccccc2)cc1`, the GI50 in the assay on MDA-N, in the assay with Hs-578T and with MDA-MB-231 was > 100 µM (inactive) each time.

On to `COC(=O)C1=C(O)C(C(=O)OC)[C@@]2(O)[C@@H](C(=O)OC)[C@H](C)C[C@@H]1[C@@H]2C(=O)OC` (some centres not stated), for which the GI50 is 15.2 µM (inactive) in the assay on MDA-N, 19.9 µM (inactive) with Hs-578T and 14.1 µM (inactive) in the assay with MDA-MB-231.

For the compound `O=C1C(=O)N(C2CCCCC2)C(=S)N1C1CCCCC1`, the GI50 with MDA-N, in the assay on Hs-578T and with MDA-MB-231 was > 100 µM (inactive) each time.

In the case of `NCc1ccccc1-c1c2nc(c(-c3ccccc3CN)c3ccc([nH]3)c(-c3ccccc3CN)c3nc(c(-c4ccccc4CN)c4ccc1[nH]4)C=C3)C=C2`, the GI50 with KM-20L2 was 19.7 µM (inactive); in the assay on HOP-18, 1.18 µM (inactive); in the assay with DMS-273, 7.36 µM (inactive).

Regarding `CCOC(=O)C(=O)Nc1c(CC)cccc1C(C)CC` (configuration not stated), the GI50 with KM-20L2, in the assay on HOP-18, in the assay with DMS-114, with DMS-273, in the assay with DLD-1 and with RXF 631 was > 100 µM (inactive) throughout.

Take `O=C(O)/C=N\N=c1[nH]c2ccccc2[nH]1`: the GI50 in the assay with MDA-N, in the assay on Hs-578T and in the assay with MDA-MB-231 was > 100 µM (inactive) in each case.

Regarding `CCCCc1oc2ccccc2c1C(=O)c1cc(I)c(OCCN(CC)CC)c(I)c1` [AMIODARONE HYDROCHLORIDE], the GI50 in the assay with KM-20L2 was 3.64 µM (inactive); with HOP-18, 0.791 µM (active); in the assay with DMS-273 it was 4.16 µM (inactive); in the assay on DLD-1 it was 6.73 µM (inactive).

`CSc1ccccc1P(c1ccccc1SC)c1ccccc1SC`: the GI50 was > 100 µM (inactive) in the assay on MDA-N, 98.2 µM (inactive) in the assay on Hs-578T and > 100 µM (inactive) in the assay with MDA-MB-231.

On to `O=C1CC2CC3OC3[C@H]3c4cc5c(cc4C(=O)N1C23)OCO5` (some centres not stated), for which the GI50 with KM-20L2, in the assay on DMS-114 and in the assay on DMS-273 was > 100 µM (inactive) in each case.

Consider `CCOC(=O)c1cc(C(=O)O)c(=O)n2c1[nH]c1ccccc12`, for which the GI50 was > 100 µM (inactive) in the assay with KM-20L2; 42.1 µM (inactive) in the assay on HOP-18; > 100 µM (inactive) with DMS-114; 56.1 µM (inactive) in the assay on DMS-273; 99.8 µM (inactive) in the assay on DLD-1; > 100 µM (inactive) in the assay with RXF 631.

Regarding `O=[N+]([O-])c1ccc(S[C@@H]2[C@H]3c4c(-c5ccccc5)[nH]c(-c5ccccc5)c4[C@@H]2C[C@H]3Cl)cc1`, the GI50 is 2.89 µM (inactive) in the assay with MDA-N, 5.08 µM (inactive) in the assay on Hs-578T and 4.8 µM (inactive) in the assay on MDA-MB-231.

As to `COc1c(OC)c(OC)c2c(c1OC)c(=O)c1ccccc1n2C` [MELICOPICINE], the GI50 in the assay on MDA-N, in the assay on Hs-578T and in the assay on MDA-MB-231 was > 100 µM (inactive) throughout.

For the compound `Nc1nnc(O)c2c1c(I)cn2C1OC(CO)C(O)C1O` (configuration not stated), the GI50 in the assay with KM-20L2 was 2.49 µM (inactive); in the assay on HOP-18, 3.05 µM (inactive); with DMS-114, 1.43 µM (inactive); with DMS-273, 0.125 µM (active); in the assay with DLD-1 it was 0.082 µM (active); with RXF 631 it was 0.295 µM (active).

`CCCCOc1ccc2c(c1)CC[C@@H]1[C@@H]2CC[C@]2(C)C(=O)N(CCCC)C(=O)C[C@@H]12`: the GI50 with MDA-N, in the assay on Hs-578T and in the assay on MDA-MB-231 was > 100 µM (inactive) throughout.

`COC1CCC2C(=O)CCCC2O1` (configuration not stated): the GI50 in the assay with KM-20L2, in the assay with HOP-18, in the assay with DMS-114, in the assay with DMS-273, with DLD-1 and with RXF 631 was > 100 µM (inactive) each time.

As for `O=C(/C=C1\Nc2ncccc2N=C1CC(=O)c1ccccc1)c1ccccc1`, the GI50 with MDA-N is 7.52 µM (inactive); with Hs-578T, 15.6 µM (inactive); in the assay on MDA-MB-231, 10.6 µM (inactive).

With `Cc1cc2c3c(c1)CCCN3CCC2`, the GI50 with MDA-N, with Hs-578T and in the assay with MDA-MB-231 was > 10 µM (inactive) in each case.

`CC(C)(C)N(Cc1ccoc1)C(=O)/C=C\[S+]([O-])c1ccccc1` (configuration not stated): the GI50 in the assay with MDA-N was 11.5 µM (inactive); in the assay on Hs-578T it was 28.4 µM (inactive); with MDA-MB-231 it was 20.2 µM (inactive).

As a reminder, the GI50 is the concentration that inhibits growth by half.

For the origin of these results see ChEMBL document CHEMBL1201862, “PubChem BioAssay data set” (2004).
